According to ChEMBL document CHEMBL4433240, “Identification and characterization of potent and selective inhibitors targeting protein tyrosine phosphatase 1B (PTP1B)” (Bioorg Med Chem Lett, 2019):
Calls of active or inactive are those of the source. The rule behind the calls is not given here.

How the values were obtained:
[1] = target: T1, Tyrosine-protein phosphatase non-receptor type 1 (Homo sapiens, UniProt P18031); test: Inhibition of PTP1B (unknown origin) assessed as reduction in nitrophenol production using pNPP as substrate incubated for 30 mins by EnVisionMultilable plate reader based method
T1 sequence (P18031 whole entry): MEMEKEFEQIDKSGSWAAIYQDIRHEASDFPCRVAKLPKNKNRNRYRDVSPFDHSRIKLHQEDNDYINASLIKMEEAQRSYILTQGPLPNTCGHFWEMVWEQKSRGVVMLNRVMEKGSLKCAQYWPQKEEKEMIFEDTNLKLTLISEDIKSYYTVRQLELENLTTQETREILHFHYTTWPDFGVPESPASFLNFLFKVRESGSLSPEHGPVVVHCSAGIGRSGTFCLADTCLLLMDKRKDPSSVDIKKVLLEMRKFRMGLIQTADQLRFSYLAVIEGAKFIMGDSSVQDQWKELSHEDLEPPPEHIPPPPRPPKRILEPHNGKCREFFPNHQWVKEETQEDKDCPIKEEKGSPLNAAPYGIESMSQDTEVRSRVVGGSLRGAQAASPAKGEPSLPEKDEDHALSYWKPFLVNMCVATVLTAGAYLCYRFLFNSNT

[2] = target: T2, Tyrosine-protein phosphatase non-receptor type 2 (Homo sapiens, UniProt P17706); test: Inhibition of TCPTP (unknown origin) assessed as reduction in nitrophenol production using pNPP as substrate incubated for 30 mins by EnVisionMultilable plate reader based method
T2 sequence (P17706 whole entry): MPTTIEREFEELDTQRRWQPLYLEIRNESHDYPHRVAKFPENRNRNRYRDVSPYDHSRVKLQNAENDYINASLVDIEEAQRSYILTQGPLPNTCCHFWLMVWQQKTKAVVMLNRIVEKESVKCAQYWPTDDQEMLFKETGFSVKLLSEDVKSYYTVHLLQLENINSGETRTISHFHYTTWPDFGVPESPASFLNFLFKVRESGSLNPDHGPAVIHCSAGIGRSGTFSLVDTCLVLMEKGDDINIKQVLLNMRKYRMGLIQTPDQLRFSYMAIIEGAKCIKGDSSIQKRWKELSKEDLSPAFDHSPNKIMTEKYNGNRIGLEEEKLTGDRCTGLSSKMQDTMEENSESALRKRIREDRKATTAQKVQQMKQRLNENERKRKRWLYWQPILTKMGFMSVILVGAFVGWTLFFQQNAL

Homo sapiens [3] = species: Homo sapiens; test: Selectivity ratio of IC50 for TCPTP (unknown origin) using pNPP as substrate to IC50 for PTP1B (unknown origin) using pNPP as substrate
[4] = target: T3, Tyrosine-protein phosphatase non-receptor type 1 (Homo sapiens) (UniProt P18031); test: Competitive inhibition of PTP1B (unknown origin) assessed as increase in Km at 0 to 28.8 uM using varying levels of pNPP as substrate by Lineweaver-Burk plot analysis
T3 sequence (whole entry): T1 sequence (P18031 whole entry)

L02 = test: Cytotoxicity against human L02 cells assessed as reduction in cell viability after 72 hrs by WST1 assay; assay type: cell-based; conditions: L02, 72 h
[5] = Cytotoxicity against human L02 cells assessed as cell viability at 1 to 250 uM after 72 hrs by WST1 assay; assay type: cell-based; conditions: read-out: Activity
[6] = target: T3, Tyrosine-protein phosphatase non-receptor type 1 (Homo sapiens); test: Competitive inhibition of PTP1B (unknown origin) assessed as change in V max at 0 to 28.8 uM using varying levels of pNPP as substrate by Lineweaver-Burk plot analysis
Homo sapiens [7] = species: Homo sapiens; test: Selectivity ratio of IC50 for TCPTP (unknown origin) to IC50 for human GST-tagged PTP1B
[8] = target: T2, Tyrosine-protein phosphatase non-receptor type 2; test: Inhibition of human FLAG-tagged TCPTP (1 to 296) expressed in Escherichia coli using fluorescein diphosphate as substrate by fluorescence based method
[9] = target: T1, Tyrosine-protein phosphatase non-receptor type 1; test: Inhibition of human FLAG-tagged PTP1B catalytic domain (1 to 298) expressed in Escherichia coli using fluorescein diphosphate as substrate by fluorescence based method
[10] = target: T3, Tyrosine-protein phosphatase non-receptor type 1 (Homo sapiens); test: Competitive inhibition of PTP1B (unknown origin) assessed as change in V max at 0 to 9.6 uM using varying levels of pNPP as substrate by Lineweaver-Burk plot analysis
[11] = target: T3, Tyrosine-protein phosphatase non-receptor type 1 (Homo sapiens); test: Competitive inhibition of PTP1B (unknown origin) assessed as increase in Km at 0 to 9.6 uM using varying levels of pNPP as substrate by Lineweaver-Burk plot analysis

| SMILES | IC50 [1] | IC50 [2] | Ratio IC50 (Homo sapiens [3]) | other results |
| --- | --- | --- | --- | --- |
| COC(=O)C1=C(C(C)C)NC(=S)N[C@H]1/C=C/c1ccc(F)cc1 | 3.33 µM | > 100 µM | > 30 | inhibition [4]: Active; IC50 (L02): > 250 µM; viability at 72 h, up to 250 µM [5]: > 85%; inhibition [6]: Active |
| COC(=O)C1=C(C(C)C)NC(=S)N[C@H]1/C=C/c1ccc(C(F)(F)F)cc1 | 5.49 µM | > 100 µM | > 18.2 |  |
| CCOC(=O)C1=C(C(C)C)NC(=S)N[C@H]1/C=C/c1ccccc1 | > 50 µM |  |  |  |
| CCOC(=O)C1=C(C(C)C)NC(=S)N[C@H]1/C=C/c1ccc(C(F)(F)F)cc1 | 10.3 µM | > 100 µM | > 9.66 |  |
| CCOC(=O)C1=C(C(C)C)NC(=S)N[C@H]1/C=C/c1ccc([N+](=O)[O-])cc1 | > 50 µM | > 100 µM |  |  |
| CC(C)OCc1cc(O)c(O)c(Br)c1Cc1cc(O)c(O)c(Br)c1Br |  |  |  | Ratio IC50 (Homo sapiens [7]): > 50 |
| CCOC(=O)C1=C(C(C)C)NC(=S)N[C@H]1/C=C/c1ccc(Cl)cc1 | 4.79 µM | 35.8 µM | 7.47 |  |
| CCOC(=O)C1=C(C(C)C)NC(=S)N[C@H]1/C=C/c1ccc(C)cc1 | 7.49 µM | > 100 µM | > 13.3 |  |
| CC1(C)CC[C@]2(C(=O)O)CC[C@]3(C)C(=CC[C@@H]4[C@@]5(C)CC[C@H](O)C(C)(C)[C@@H]5CC[C@]43C)[C@@H]2C1 [OLEANOLIC_ACID] |  |  |  | viability at 72 h, up to 250 µM [5]: < 85% |
| CCOC(=O)C1=C(C(C)C)NC(=S)N[C@H]1/C=C/c1ccc(Br)cc1 | 11.3 µM | > 100 µM | > 8.85 |  |
| COC(CC(C)C)c1ccc2ccc(-c3ccc(CC(Cc4ccc(C(F)(F)P(=O)(O)O)cc4)(c4ccccc4)n4nnc5ccccc54)cc3)c(P(=O)(O)O)c2n1 (configuration not stated) |  |  |  | IC50 [8]: 0.036 µM; IC50 [9]: 0.005 µM |
| CCOC(=O)C1=C(C(C)C)NC(=S)N[C@H]1/C=C/c1ccc(F)cc1 | > 50 µM |  |  |  |
| COC(=O)C1=C(C(C)C)NC(=S)N[C@H]1/C=C/c1ccc(Br)cc1 | 6.28 µM | > 100 µM | > 15.9 |  |
| COC(=O)C1=C(C(C)C)NC(=S)N[C@H]1/C=C/c1ccccc1 | 18.6 µM | > 100 µM | > 5.39 |  |
| COC(=O)C1=C(C(C)C)NC(=S)N[C@H]1/C=C/c1ccc(Cl)cc1 | 7.12 µM | > 100 µM | > 14 | inhibition [10]: Active; IC50 (L02): > 250 µM; inhibition [11]: Active; viability at 72 h, up to 250 µM [5]: > 85% |
| COC(=O)C1=C(C(C)C)NC(=S)N[C@H]1/C=C/c1ccc([N+](=O)[O-])cc1 | > 50 µM |  |  |  |

More lines, main results first:

| IC50 [1] | IC50 [2] | Ratio IC50 (Homo sapiens [3]) | SMILES | other results |
| --- | --- | --- | --- | --- |
| 2.38 µM | 40.4 µM | 17 | CCOC(=O)C1=C(C(C)C)NC(=S)N[C@H]1/C=C/c1ccc(OC)cc1 |  |
| 6.31 µM | > 100 µM | > 15.8 | COC(=O)C1=C(C(C)(C)C)NC(=S)N[C@H]1/C=C/c1ccc(C(F)(F)F)cc1 |  |
| > 50 µM |  |  | COC(=O)C1=C(C(C)(C)C)NC(=S)N[C@H]1/C=C/c1ccccc1 |  |
| 5.03 µM | > 100 µM | > 19.9 | COC(=O)C1=C(C(C)(C)C)NC(=S)N[C@H]1/C=C/c1ccc(OC)cc1 |  |
| 6.65 µM | 54.8 µM | 8.24 | COC(=O)C1=C(C(C)(C)C)NC(=S)N[C@H]1/C=C/c1ccc(Cl)cc1 |  |
| 11 µM | 36 µM | 3.28 | COC(=O)C1=C(C(C)(C)C)NC(=S)N[C@H]1/C=C/c1ccc(Br)cc1 |  |
| 11.4 µM | > 100 µM | > 8.79 | COC(=O)C1=C(C(C)(C)C)NC(=S)N[C@H]1/C=C/c1ccc([N+](=O)[O-])cc1 |  |
| 16.3 µM | > 100 µM | > 6.13 | COC(=O)C1=C(C(C)(C)C)NC(=S)N[C@H]1/C=C/c1ccc(C)cc1 |  |
| > 50 µM |  |  | COC(=O)C1=C(C(C)(C)C)NC(=S)N[C@H]1/C=C/c1ccc(F)cc1 |  |
